This is an account of results in paper PMC8387766 (The Journal of Biological Chemistry, 2021).

Assay [1] deals with T1, mouse TRPV1 (wildtype) (Mus musculus, UniProt Q704Y3). The experiment in a line: Whole-cell patch-clamp of wild-type TRPV1 in HEK293 cells. The format is cell-based. Background: In patch-clamp work, channel activity is measured electrically.
The next assay has as its target mouse TRPV1 T551V mutant (Mus musculus, UniProt Q704Y3, T551V). As to the kind of experiment: cell-based. It counts as cell-based.
Another assay concerns the target mouse TRPV1 Y512A mutant (Mus musculus, UniProt Q704Y3, Y512A). It counts as cell-based. Particulars: saturating concentration for the wildtype channel; whole-cell recording.
Another assay deals with mouse TRPV1 E571A mutant (Mus musculus, UniProt Q704Y3, E571A). As to the kind of experiment: Whole-cell patch-clamp of TRPV1 E571A mutant. It counts as cell-based. Particulars: whole-cell recording.
Assay [2] concerns the target T1, mouse TRPV1 (wildtype). Particulars: WT channel; cited from earlier work.

Sequence of mouse TRPV1 T551V mutant (Q704Y3 whole entry T551V): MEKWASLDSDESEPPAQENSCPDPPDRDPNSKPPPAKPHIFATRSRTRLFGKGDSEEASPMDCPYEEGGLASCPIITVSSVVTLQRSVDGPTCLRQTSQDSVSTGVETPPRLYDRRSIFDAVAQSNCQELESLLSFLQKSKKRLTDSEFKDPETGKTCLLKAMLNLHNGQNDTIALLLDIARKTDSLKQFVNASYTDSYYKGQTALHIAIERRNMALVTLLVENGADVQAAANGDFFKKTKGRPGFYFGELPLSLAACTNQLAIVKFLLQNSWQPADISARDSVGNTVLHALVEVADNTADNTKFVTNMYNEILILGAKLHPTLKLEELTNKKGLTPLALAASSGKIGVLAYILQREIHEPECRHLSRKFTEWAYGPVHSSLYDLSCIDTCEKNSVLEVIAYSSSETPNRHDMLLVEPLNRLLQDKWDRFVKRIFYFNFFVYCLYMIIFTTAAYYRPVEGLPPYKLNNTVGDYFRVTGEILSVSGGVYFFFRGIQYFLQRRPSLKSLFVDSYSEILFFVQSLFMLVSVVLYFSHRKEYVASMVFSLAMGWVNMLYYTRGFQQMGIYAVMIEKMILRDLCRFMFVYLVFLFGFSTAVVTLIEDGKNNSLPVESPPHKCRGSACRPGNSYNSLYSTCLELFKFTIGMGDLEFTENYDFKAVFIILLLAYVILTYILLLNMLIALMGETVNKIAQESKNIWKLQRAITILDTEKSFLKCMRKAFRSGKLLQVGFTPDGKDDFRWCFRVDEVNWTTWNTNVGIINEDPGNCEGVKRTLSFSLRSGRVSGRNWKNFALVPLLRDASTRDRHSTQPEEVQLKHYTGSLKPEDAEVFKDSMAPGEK
Sequence of mouse TRPV1 E571A mutant (Q704Y3 whole entry E571A): as the sequence (Q704Y3 whole entry T551V) above, with V551T, E571A counted along it
T1 sequence (Q704Y3 whole entry): as the sequence (Q704Y3 whole entry T551V) above, with V551T counted along it
Sequence of mouse TRPV1 Y512A mutant (Q704Y3 whole entry Y512A): as the sequence (Q704Y3 whole entry T551V) above, with Y512A, V551T counted along it

As usually defined, the EC50 is the concentration giving half of the maximal effect. Low readings indicate higher potency in that assay, high ones lower potency in that assay. For `COc1cc(CNC(=O)CCCC/C=C/C(C)C)ccc1O` [capsaicin], the half-maximal effective concentration (EC50) on mouse TRPV1 (wildtype) [1] was found to be 146 ± 39 nM. Further, the “shift of activation to higher concentration, T551V versus wildtype” value on mouse TRPV1 T551V mutant is recorded as “about 10 fold”. Also, the “activation of the Y512A mutant” value on mouse TRPV1 Y512A mutant is recorded as “activated”. The “activation of the E571A mutant” value at mouse TRPV1 E571A mutant is recorded as “can still activate”.

On to `NCCOB(c1ccccc1)c1ccccc1` [2-APB, 2-aminoethyl diphenylborinate], for which, on mouse TRPV1 Y512A mutant, the “activation of the Y512A mutant” value was “largely activated”. Besides, on mouse TRPV1 (wildtype) [2], the “maximum open probability (Po_max)” value is approximately 100%.

Regarding `CCCCCCCC/C=C\CCCCCCCC(=O)NCCc1ccc(O)c(O)c1` [OLDA, N-oleoyldopamine], the EC50 at mouse TRPV1 (wildtype) [1] was 290 ± 80 nM; at mouse TRPV1 T551V mutant, 540 ± 140 nM. The “activation of the E571A mutant” value at mouse TRPV1 E571A mutant is given as “barely opened”.

Regarding `CCCCC/C=C\C/C=C\C/C=C\C/C=C\CCCC(=O)NCCO` [AEA, anandamide], the EC50 on mouse TRPV1 (wildtype) [1] is 6020 ± 1230 nM; on mouse TRPV1 T551V mutant it was 4880 ± 780 nM. Besides, on mouse TRPV1 E571A mutant, the “activation of the E571A mutant” value is given as “barely opened”.
